Assay results: ChEMBL document CHEMBL1145498, “A systematic interaction map of validated kinase inhibitors with Ser/Thr kinases” (Proc Natl Acad Sci U S A, 2007)

Columns and labels:
[1] = molecular target: 5'-AMP-activated protein kinase catalytic subunit alpha-2 (Homo sapiens) (UniProt P54646)
[2] = molecular target: Calcium/calmodulin-dependent protein kinase type II subunit beta (Homo sapiens) (UniProt Q13554)
[3] = molecular target: T1, Calcium/calmodulin-dependent protein kinase type IV (Homo sapiens) (UniProt Q16566)
T1 sequence (whole entry): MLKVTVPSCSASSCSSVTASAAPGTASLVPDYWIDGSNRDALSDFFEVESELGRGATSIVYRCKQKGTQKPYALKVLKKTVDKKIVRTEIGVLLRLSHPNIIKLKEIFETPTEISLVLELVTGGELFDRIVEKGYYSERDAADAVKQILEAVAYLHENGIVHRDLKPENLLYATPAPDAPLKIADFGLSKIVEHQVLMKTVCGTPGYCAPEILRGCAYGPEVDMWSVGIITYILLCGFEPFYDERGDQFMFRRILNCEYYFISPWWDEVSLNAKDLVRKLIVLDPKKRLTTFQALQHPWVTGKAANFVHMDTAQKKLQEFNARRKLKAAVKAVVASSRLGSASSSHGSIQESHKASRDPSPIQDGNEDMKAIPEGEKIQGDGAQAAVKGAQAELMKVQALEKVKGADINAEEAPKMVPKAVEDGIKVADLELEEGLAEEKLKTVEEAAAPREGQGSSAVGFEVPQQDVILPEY

[4] = molecular target: Casein kinase I isoform gamma-3 (Homo sapiens) (UniProt Q9Y6M4)
[5] = molecular target: T2, Dual specificity mitogen-activated protein kinase kinase 6 (Homo sapiens) (UniProt P52564)
T2 sequence (whole entry): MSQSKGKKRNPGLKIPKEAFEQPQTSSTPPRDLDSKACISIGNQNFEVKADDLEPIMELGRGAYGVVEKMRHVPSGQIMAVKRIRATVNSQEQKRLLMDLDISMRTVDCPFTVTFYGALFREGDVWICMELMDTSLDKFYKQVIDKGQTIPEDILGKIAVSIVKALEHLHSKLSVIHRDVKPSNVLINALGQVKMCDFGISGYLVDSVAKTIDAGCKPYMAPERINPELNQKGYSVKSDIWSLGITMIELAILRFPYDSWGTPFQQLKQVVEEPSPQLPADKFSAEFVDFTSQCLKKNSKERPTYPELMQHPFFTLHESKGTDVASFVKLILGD

[6] = molecular target: Mitogen-activated protein kinase 6 (Homo sapiens) (UniProt Q16659)
[7] = molecular target: Serine/threonine-protein kinase PAK 4 (Homo sapiens) (UniProt O96013)
[8] = molecular target: Serine/threonine-protein kinase PAK 5 (Homo sapiens) (UniProt Q9P286)
[9] = molecular target: Cyclin-dependent kinase 16 (Homo sapiens) (UniProt Q00536)
[10] = molecular target: T3, 3-phosphoinositide-dependent protein kinase 1 (Homo sapiens) (UniProt O15530)
T3 sequence (whole entry): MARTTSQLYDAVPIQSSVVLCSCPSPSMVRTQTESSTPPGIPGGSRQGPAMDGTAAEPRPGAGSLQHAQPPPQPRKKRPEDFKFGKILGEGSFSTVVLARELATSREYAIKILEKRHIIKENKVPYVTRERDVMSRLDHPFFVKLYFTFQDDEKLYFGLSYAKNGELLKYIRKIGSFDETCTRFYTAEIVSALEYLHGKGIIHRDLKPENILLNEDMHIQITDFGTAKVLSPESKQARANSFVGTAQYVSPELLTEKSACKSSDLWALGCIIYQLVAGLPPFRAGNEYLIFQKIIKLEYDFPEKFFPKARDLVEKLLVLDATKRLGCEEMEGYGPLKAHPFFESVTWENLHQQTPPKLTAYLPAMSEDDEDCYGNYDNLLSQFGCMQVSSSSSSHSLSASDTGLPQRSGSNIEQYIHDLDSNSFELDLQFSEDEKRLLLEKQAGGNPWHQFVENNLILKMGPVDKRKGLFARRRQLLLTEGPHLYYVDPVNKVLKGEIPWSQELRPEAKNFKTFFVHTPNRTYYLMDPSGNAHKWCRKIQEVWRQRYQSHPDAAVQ

[11] = molecular target: Serine/threonine-protein kinase RIO2 (Homo sapiens) (UniProt Q9BVS4)
[12] = molecular target: Ribosomal protein S6 kinase alpha-3 (Homo sapiens) (UniProt P51812)
[13] = molecular target: Serine/threonine-protein kinase 16 (Homo sapiens) (UniProt O75716)
[14] = molecular target: T4, Serine/threonine-protein kinase 17A (Homo sapiens) (UniProt Q9UEE5)
T4 sequence (whole entry): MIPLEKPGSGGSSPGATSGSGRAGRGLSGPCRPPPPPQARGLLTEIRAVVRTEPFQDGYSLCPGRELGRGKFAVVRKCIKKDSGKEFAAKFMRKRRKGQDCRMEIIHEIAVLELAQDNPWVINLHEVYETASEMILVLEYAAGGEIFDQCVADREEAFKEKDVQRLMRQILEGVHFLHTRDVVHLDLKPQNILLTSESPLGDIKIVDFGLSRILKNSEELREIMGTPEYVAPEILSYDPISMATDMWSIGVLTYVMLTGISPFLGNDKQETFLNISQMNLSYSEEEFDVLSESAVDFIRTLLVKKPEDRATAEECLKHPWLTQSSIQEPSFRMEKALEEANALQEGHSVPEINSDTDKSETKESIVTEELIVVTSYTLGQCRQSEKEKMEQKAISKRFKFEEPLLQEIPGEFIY

[15] = molecular target: Serine/threonine-protein kinase 38 (Homo sapiens) (UniProt Q15208)
[16] = molecular target: Serine/threonine-protein kinase VRK2 (Homo sapiens) (UniProt Q86Y07)
Chain of Serine/threonine-protein kinase VRK2 (Homo sapiens) (Q86Y07 whole entry): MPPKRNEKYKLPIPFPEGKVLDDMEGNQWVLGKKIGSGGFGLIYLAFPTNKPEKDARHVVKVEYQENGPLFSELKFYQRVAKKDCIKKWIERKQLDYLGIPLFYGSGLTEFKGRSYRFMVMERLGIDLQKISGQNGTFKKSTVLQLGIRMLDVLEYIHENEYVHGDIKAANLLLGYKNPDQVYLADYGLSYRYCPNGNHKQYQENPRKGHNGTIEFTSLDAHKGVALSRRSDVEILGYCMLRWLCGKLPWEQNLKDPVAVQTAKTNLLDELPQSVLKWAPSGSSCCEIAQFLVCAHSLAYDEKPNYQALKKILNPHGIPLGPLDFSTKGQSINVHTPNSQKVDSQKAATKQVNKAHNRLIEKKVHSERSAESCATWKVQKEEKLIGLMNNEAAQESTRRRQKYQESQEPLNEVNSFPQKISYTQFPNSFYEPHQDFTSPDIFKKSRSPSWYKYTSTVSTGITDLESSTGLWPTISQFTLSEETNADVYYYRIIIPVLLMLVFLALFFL

Chain of Serine/threonine-protein kinase PAK 5 (Homo sapiens) (Q9P286 whole entry, looked up): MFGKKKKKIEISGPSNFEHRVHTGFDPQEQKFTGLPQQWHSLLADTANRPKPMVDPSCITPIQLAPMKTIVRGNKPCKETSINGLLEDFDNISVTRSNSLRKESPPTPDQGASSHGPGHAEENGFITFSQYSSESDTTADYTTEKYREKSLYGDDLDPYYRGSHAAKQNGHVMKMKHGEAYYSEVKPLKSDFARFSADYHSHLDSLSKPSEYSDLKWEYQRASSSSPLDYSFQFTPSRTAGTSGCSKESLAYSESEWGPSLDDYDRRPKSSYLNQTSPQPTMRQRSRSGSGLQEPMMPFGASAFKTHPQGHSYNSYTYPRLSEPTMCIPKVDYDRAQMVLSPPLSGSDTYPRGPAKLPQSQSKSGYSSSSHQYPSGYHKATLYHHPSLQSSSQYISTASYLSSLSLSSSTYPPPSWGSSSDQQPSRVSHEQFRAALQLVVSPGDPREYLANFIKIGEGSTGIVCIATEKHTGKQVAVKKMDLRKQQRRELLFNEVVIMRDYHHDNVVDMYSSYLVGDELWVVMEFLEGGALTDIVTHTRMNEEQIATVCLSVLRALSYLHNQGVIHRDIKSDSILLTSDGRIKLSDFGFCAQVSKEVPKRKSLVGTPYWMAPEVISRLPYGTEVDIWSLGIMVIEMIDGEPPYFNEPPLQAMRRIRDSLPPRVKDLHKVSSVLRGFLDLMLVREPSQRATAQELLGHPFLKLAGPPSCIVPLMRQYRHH
Chain of Serine/threonine-protein kinase 16 (Homo sapiens) (O75716 whole entry): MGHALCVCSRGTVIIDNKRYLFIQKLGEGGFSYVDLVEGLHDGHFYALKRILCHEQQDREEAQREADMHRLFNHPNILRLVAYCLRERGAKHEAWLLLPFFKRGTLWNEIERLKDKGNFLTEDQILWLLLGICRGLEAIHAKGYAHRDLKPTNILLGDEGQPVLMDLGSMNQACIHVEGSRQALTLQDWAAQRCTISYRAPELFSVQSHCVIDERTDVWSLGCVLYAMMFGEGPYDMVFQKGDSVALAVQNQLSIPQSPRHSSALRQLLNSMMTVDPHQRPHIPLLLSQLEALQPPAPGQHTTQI
Chain of Serine/threonine-protein kinase RIO2 (Homo sapiens) (Q9BVS4 whole entry, looked up): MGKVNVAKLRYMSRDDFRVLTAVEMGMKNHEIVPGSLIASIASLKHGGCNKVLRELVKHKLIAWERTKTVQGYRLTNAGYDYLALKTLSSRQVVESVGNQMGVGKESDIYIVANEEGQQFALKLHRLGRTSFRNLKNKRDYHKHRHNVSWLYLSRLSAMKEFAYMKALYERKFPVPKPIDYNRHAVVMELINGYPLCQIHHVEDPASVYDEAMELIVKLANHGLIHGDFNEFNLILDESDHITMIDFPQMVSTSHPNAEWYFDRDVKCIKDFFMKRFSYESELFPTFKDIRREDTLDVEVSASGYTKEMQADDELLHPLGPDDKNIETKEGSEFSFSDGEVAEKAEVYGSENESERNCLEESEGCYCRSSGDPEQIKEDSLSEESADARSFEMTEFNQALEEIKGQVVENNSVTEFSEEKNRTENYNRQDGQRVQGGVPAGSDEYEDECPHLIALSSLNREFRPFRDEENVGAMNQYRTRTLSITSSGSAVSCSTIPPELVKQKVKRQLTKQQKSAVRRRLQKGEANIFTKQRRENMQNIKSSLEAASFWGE
Chain of Ribosomal protein S6 kinase alpha-3 (Homo sapiens) (P51812 whole entry): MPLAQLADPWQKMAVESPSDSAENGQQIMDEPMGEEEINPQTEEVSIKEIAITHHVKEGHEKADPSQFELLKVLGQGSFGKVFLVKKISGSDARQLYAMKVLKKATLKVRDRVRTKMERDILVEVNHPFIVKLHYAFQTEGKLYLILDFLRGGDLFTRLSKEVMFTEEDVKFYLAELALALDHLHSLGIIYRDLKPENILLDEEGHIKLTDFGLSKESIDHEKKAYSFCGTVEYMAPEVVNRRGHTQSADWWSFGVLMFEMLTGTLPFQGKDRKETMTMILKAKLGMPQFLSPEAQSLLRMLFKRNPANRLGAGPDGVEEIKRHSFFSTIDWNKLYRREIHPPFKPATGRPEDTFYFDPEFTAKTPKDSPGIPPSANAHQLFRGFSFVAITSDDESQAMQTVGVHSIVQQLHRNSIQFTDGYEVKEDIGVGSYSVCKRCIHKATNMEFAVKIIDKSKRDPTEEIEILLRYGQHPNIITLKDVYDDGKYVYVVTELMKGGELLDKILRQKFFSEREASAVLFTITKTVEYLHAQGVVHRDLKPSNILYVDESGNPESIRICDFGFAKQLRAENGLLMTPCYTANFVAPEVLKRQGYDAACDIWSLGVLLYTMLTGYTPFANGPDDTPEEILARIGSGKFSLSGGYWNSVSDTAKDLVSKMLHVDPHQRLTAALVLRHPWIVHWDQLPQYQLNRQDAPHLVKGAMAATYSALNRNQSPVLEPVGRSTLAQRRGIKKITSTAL
Chain of Mitogen-activated protein kinase 6 (Homo sapiens) (Q16659 whole entry): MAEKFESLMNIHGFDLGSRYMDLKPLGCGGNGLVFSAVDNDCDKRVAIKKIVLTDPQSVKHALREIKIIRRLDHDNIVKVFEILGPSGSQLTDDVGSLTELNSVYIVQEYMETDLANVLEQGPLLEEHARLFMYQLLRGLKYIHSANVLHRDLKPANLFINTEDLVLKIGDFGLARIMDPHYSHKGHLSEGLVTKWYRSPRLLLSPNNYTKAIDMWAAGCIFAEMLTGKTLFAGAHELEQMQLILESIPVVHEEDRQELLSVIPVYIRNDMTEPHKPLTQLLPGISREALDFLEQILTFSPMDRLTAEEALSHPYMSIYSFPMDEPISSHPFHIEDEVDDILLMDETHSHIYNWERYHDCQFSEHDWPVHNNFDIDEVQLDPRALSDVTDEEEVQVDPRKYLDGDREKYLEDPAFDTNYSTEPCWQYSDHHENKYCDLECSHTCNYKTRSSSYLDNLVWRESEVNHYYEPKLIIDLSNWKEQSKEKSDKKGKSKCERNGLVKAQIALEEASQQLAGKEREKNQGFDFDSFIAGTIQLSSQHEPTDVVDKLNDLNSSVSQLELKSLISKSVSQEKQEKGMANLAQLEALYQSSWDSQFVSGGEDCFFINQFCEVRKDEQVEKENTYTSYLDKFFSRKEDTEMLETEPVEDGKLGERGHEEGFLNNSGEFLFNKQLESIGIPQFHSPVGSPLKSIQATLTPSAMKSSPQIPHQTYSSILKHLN
Chain of Casein kinase I isoform gamma-3 (Homo sapiens) (Q9Y6M4 whole entry, looked up, canonical isoform): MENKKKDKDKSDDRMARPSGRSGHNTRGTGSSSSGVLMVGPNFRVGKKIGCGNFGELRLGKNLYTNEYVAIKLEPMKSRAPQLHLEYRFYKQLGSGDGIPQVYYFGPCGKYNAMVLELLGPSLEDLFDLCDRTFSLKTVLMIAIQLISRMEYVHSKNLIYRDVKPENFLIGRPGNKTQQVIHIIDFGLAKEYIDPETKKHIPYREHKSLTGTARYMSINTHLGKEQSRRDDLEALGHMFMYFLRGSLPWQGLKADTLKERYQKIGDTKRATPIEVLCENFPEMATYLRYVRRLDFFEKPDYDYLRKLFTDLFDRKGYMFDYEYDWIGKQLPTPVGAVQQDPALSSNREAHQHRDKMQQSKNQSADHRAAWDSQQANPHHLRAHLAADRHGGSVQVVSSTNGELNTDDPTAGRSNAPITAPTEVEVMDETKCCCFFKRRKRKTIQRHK
Chain of Cyclin-dependent kinase 16 (Homo sapiens) (Q00536 whole entry): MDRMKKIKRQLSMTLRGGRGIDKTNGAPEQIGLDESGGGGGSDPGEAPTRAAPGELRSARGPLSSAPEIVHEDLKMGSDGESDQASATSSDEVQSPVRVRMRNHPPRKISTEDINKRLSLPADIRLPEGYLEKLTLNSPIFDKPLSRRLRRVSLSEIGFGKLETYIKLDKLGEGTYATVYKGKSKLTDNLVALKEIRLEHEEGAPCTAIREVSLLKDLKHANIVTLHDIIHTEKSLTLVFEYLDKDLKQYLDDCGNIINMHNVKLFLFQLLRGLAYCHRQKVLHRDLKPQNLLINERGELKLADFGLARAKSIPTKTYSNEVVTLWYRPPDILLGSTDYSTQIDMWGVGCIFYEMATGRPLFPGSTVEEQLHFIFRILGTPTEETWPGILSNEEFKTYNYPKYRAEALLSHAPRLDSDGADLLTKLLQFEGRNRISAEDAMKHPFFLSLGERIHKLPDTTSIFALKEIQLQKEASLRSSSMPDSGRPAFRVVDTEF
Chain of Serine/threonine-protein kinase 38 (Homo sapiens) (Q15208 2-465 limits assumed): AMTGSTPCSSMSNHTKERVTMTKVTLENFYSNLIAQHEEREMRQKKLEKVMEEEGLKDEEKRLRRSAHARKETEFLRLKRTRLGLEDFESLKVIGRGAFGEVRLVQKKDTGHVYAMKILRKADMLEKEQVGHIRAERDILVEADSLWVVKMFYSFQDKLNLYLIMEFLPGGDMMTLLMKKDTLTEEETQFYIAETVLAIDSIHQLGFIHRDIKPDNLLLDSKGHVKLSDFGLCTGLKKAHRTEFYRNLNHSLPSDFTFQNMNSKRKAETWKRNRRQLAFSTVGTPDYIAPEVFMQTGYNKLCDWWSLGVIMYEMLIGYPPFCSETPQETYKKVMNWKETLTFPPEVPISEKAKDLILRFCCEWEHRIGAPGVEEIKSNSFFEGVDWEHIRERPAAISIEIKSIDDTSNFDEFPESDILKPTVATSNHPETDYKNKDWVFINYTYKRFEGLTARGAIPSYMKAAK

| SMILES | ΔTm [1] | ΔTm [2] | ΔTm [3] | ΔTm [4] | ΔTm [5] | ΔTm [6] | ΔTm [7] | ΔTm [8] | ΔTm [9] | ΔTm [10] | ΔTm [11] | ΔTm [12] | ΔTm [13] | ΔTm [14] | ΔTm [15] | ΔTm [16] |
| --- | --- | --- | --- | --- | --- | --- | --- | --- | --- | --- | --- | --- | --- | --- | --- | --- |
| O=C1NC(=O)c2c1c1c3ccccc3[nH]c1n1cncc21 [ISOGRANULATIMIDE] | 3.6 °C | 1.2 °C | 6 °C | 3.6 °C | 14.6 °C | 1.2 °C | 3.8 °C | 1.3 °C | 3.1 °C | 1.9 °C | 7.3 °C | 5.2 °C | 7.4 °C | 1.3 °C | 2.4 °C | 2 °C |
| CC(C)(C)n1nc(-c2cccc3ccccc23)c2c(N)ncnc21 | 0 °C | 0.2 °C | -0.1 °C | 0.5 °C | 3.5 °C | 0 °C | 1.2 °C | 1 °C | -0.4 °C | -0.4 °C | 0.4 °C | 2.4 °C | 0.7 °C | 2 °C | 0.4 °C | 2.8 °C |
| N#C/C(=C(/N)Sc1ccc(N)cc1)c1ccccc1C(F)(F)F | -0.8 °C | 0.5 °C | 0.5 °C | 0.6 °C | 0.2 °C | 0.4 °C | 1.3 °C | 0.6 °C | 0 °C | -0.1 °C | -0.2 °C | 0 °C | 0.2 °C | 0.4 °C | 0.4 °C | 0.1 °C |
| NC1=N/C(=C2/CCNC(=O)c3[nH]ccc32)C(=O)N1 [DEBROMOHYMENIALDISINE] | -0.5 °C | 0.7 °C | 0 °C | 2.4 °C | 0.3 °C | 0.3 °C | 0.9 °C | 0.2 °C | 0 °C | 0 °C | -0.3 °C | 2.6 °C | 0.4 °C | 10.2 °C | 0.7 °C | 0.7 °C |
| COc1ccc2c(c[n+](C)c3c4cc5c(cc4ccc23)OCO5)c1OC [CHELERYTHRINE CHLORIDE] | -1.3 °C | 0.1 °C | -0.6 °C | 0.2 °C | -6.6 °C | -0.3 °C | -3.8 °C | -1.7 °C | -0.2 °C | -0.7 °C | -0.4 °C | -1.3 °C | -0.4 °C | -0.8 °C | 0.1 °C | 0 °C |
| N=C(N)NCCNS(=O)(=O)c1cccc2cnccc12 | 0.5 °C | 0.4 °C | -0.3 °C | 0.3 °C | -0.1 °C | 0.4 °C | -0.1 °C | 0.4 °C | -0.7 °C | -0.3 °C | 1.5 °C | 0.4 °C | 0.3 °C | 0.6 °C | 0.1 °C | 0.1 °C |
| O=C1NC(=O)c2c1c1c3ccccc3n3c1c1c2c2ccccc2n1C1CCC3O1 | 3.9 °C | 1.2 °C | -0.2 °C | 0.3 °C | -0.2 °C | 0.5 °C | 2.8 °C | 2.4 °C | 0.3 °C | -0.1 °C | -0.2 °C | 0 °C | 1.7 °C | -0.4 °C | 0 °C | 0.1 °C |
| Cc1ccc(NC(=O)c2cccc(N(C)C)c2)cc1NC(=O)c1ccc(O)cc1 | -0.1 °C | 0.4 °C | 0 °C | 0.3 °C | 0 °C | 0.4 °C | 0.4 °C | 0.6 °C | 0.3 °C | -0.4 °C | 0.2 °C | 0.2 °C | 0.5 °C | 0.6 °C | 0 °C | 0.2 °C |
| Brc1c(Br)c(Br)c2[nH]nnc2c1Br [TETRABROMOBENZOTRIAZOLE] | 0.4 °C | 1.2 °C | 0.4 °C | -0.3 °C | 2.4 °C | -0.2 °C | -0.1 °C | 0.2 °C | -0.5 °C | -4.4 °C | 3.1 °C | 1.5 °C | 1.1 °C | 4.1 °C | 1.3 °C | -0.5 °C |
| N#CCCc1ccc2c(c1)-c1[nH]c3ccc([N+](=O)[O-])cc3c1CC(=O)N2 [ALSTERPAULLONE 2] | 1 °C | 0.2 °C | 0.4 °C | 1.6 °C | 0.8 °C | 1.7 °C | 4.3 °C | 3.9 °C | 8.7 °C | -0.4 °C | 1.2 °C | 4.1 °C | 3 °C | 9.6 °C | 3.3 °C | 0.7 °C |
| CCOC(=O)c1cnc2oc3ccc(O)cc3c2c1-c1ccccc1 | 0 °C | 0.4 °C | 0.8 °C | 1.1 °C | 1.9 °C | 0.2 °C | 0.7 °C | 0.5 °C | -0.6 °C | -0.5 °C | 1.2 °C | 4.4 °C | 5.4 °C | 2 °C | 0.2 °C | 0.3 °C |
| NCCNS(=O)(=O)c1cccc2c(Cl)cccc12 | -0.2 °C | 0.4 °C | -0.1 °C | 0.4 °C | -0.1 °C | 0.3 °C | 0.5 °C | 0.1 °C | -0.1 °C | -0.2 °C | 0.2 °C | 0.5 °C | 0.2 °C | 1 °C | -0.1 °C | 0.1 °C |
| O=C1C(Cl)=C(N2C(=O)CCC2=O)C(=O)c2ccccc21 | 0.6 °C | -1.5 °C | 1.2 °C | 0.1 °C | -11 °C | -1.1 °C | -0.4 °C | -1.3 °C | 0.4 °C | -1.9 °C | -1.5 °C | -0.8 °C | -0.1 °C | 0.5 °C | -1.4 °C | -0.3 °C |
